Reference: US11759462B2, “Spirocyclic compounds as tryptophan hydroxylase inhibitors” (priority 2013, dated 2023)

Each compound was assayed against T1, Recombinant human TPH1 (MBP tagged) (Homo sapiens, UniProt P17752) (assay: TPH1 in vitro inhibition assay (kinetic fluorescence)). Conditions: TPH1 Range (TPH1 inhibition IC50).
T1 construct: cloning full length human TPH1 cDNA in to a bacterial pMAL-c5E expression vector; made in house; host or cells: E. coli BL21 (DE3)
T1 sequence (P17752 1-444): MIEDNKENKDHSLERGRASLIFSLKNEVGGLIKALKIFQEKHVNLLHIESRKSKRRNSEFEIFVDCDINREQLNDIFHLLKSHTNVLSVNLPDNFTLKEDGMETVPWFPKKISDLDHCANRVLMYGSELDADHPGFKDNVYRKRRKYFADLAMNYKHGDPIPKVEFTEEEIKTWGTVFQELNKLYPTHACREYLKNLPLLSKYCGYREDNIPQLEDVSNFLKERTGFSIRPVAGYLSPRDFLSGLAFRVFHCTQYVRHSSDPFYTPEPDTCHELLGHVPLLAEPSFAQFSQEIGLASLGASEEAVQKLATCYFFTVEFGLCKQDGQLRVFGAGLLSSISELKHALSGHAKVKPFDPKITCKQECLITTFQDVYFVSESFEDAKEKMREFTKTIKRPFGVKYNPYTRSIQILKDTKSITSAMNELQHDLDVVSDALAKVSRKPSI
Format: biochemical
Procedure, shortened: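 Final mix: 15 nM MBP-TPH1, 30 μM Trp, 36 μM 6-methyltetrahydropterin, 25 μM ferrous ammonium sulfate, 50 mM MES pH 7.1, 1% DMSO, room temperature.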

CN(C)S(=O)(=O)c1cccc(-c2cc(Cl)ccc2[C@@H](Oc2cc(N3CCC4(CC3)CN[C@H](C(=O)O)C4)nc(N)n2)C(F)(F)F)c1 [Example 34cl, (S)-8-(2-amino-6-((R)-1-(5-chloro-3′-(N,N-dimethylsulfamoyl)-[1,1′-biphenyl]-2-yl)-2,2,2-trifluoroethoxy)pyrimidin-4-yl)-2,8-diazaspiro[4.5]decane-3-carboxylic acid] was tested, and the IC50 was 50 to 300 nM.

Same assay, conditions: read-out: TPH1 Range (TPH1 inhibition IC50)

CCc1cccc(-c2cc(Cl)ccc2[C@@H](Oc2cc(N3CCC4(CC3)CN[C@H](C(=O)O)C4)nc(N)n2)C(F)(F)F)c1 [Example 34cd, (S)-8-(2-amino-6-((R)-1-(5-chloro-3′-ethyl-[1,1′-biphenyl]-2-yl)-2,2,2-trifluoroethoxy)pyrimidin-4-yl)-2,8-diazaspiro[4.5]decane-3-carboxylic acid] and CNC(=O)c1cccc(-c2cc(Cl)ccc2[C@@H](Oc2cc(N3CCC4(CC3)CN[C@H](C(=O)O)C4)nc(N)n2)C(F)(F)F)c1 [Example 34cm, (S)-8-(2-amino-6-((R)-1-(5-chloro-3′-(methylcarbamoyl)-[1,1′-biphenyl]-2-yl)-2,2,2-trifluoroethoxy)pyrimidin-4-yl)-2,8-diazaspiro[4.5]decane-3-carboxylic acid] fall in the same range of IC50: 50 to 300 nM for the first, 50 to 300 nM for the second.

First: Nc1nc(O[C@H](c2ccc(Cl)cc2-c2cccc(C(=O)NCCN3CCCC3)c2)C(F)(F)F)cc(N2CCC3(CC2)CN[C@H](C(=O)O)C3)n1 [Example 34cf, (S)-8-(2-amino-6-((R)-1-(5-chloro-3′-((2-(pyrrolidin-1-yl)ethyl)carbamoyl)-[1,1′-biphenyl]-2-yl)-2,2,2-trifluoroethoxy)pyrimidin-4-yl)-2,8-diazaspiro[4.5]decane-3-carboxylic acid]
Second: CN1CCN(C(=O)c2cccc(-c3cc(Cl)ccc3[C@@H](Oc3cc(N4CCC5(CC4)CN[C@H](C(=O)O)C5)nc(N)n3)C(F)(F)F)c2)CC1 [Example 34ch, (S)-8-(2-amino-6-((R)-1-(5-chloro-3′-(4-methylpiperazine-1-carbonyl)-[1,1′-biphenyl]-2-yl)-2,2,2-trifluoroethoxy)pyrimidin-4-yl)-2,8-diazaspiro[4.5]decane-3-carboxylic acid]
The IC50 of the first is higher: 300 to 3000 nM for the first, less than 50 nM for the second.

Compared with Nc1nc(O[C@H](c2ccc(Cl)cc2-c2cccc(C(=O)N3CCOCC3)c2)C(F)(F)F)cc(N2CCC3(CC2)CN[C@H](C(=O)O)C3)n1 [Example 34cg, (S)-8-(2-amino-6-((R)-1-(5-chloro-3′-(morpholine-4-carbonyl)-[1,1′-biphenyl]-2-yl)-2,2,2-trifluoroethoxy)pyrimidin-4-yl)-2,8-diazaspiro[4.5]decane-3-carboxylic acid], Nc1nc(O[C@H](c2ccc(Cl)cc2-c2cccc(C(=O)N3CCNCC3)c2)C(F)(F)F)cc(N2CCC3(CC2)CN[C@H](C(=O)O)C3)n1 [Example 34cq, (S)-8-(2-amino-6-((R)-1-(5-chloro-3′-(piperazine-1-carbonyl)-[1,1′-biphenyl]-2-yl)-2,2,2-trifluoroethoxy)pyrimidin-4-yl)-2,8-diazaspiro[4.5]decane-3-carboxylic acid] is lower in IC50: 50 to 300 nM for the first, less than 50 nM for the second.

First: Cc1ncc(-c2cc(Cl)ccc2[C@@H](Oc2cc(N3CCC4(CC3)CN[C@H](C(=O)O)C4)nc(N)n2)C(F)(F)F)s1 [Example 34ci, (S)-8-(2-amino-6-((R)-1-(4-chloro-2-(2-methylthiazol-5-yl)phenyl)-2,2,2-trifluoroethoxy)pyrimidin-4-yl)-2,8-diazaspiro[4.5]decane-3-carboxylic acid]
Second: Nc1nc(O[C@H](c2ccc(Cl)cc2-c2cnccn2)C(F)(F)F)cc(N2CCC3(CC2)CN[C@H](C(=O)O)C3)n1 [Example 34cu, (S)-8-(2-amino-6-((R)-1-(4-chloro-2-(pyrazin-2-yl)phenyl)-2,2,2-trifluoroethoxy)pyrimidin-4-yl)-2,8-diazaspiro[4.5]decane-3-carboxylic acid]
The IC50 of the first is higher: 50 to 300 nM for the first, less than 50 nM for the second. The second is the more potent here.

Cn1cccc(-c2cc(Cl)ccc2[C@@H](Oc2cc(N3CCC4(CC3)CN[C@H](C(=O)O)C4)nc(N)n2)C(F)(F)F)c1=O [Example 34cj, (S)-8-(2-amino-6-((R)-1-(4-chloro-2-(1-methyl-2-oxo-1,2-dihydropyridin-3-yl)phenyl)-2,2,2-trifluoroethoxy)pyrimidin-4-yl)-2,8-diazaspiro[4.5]decane-3-carboxylic acid] and Nc1nc(O[C@H](c2ccc(Cl)cc2-c2cccc3[nH]cnc23)C(F)(F)F)cc(N2CCC3(CC2)CN[C@H](C(=O)O)C3)n1 [Example 34cp, (S)-8-(6-((R)-1-(2-(1H-benzo[d]imidazol-4-yl)-4-chlorophenyl)-2,2,2-trifluoroethoxy)-2-aminopyrimidin-4-yl)-2,8-diazaspiro[4.5]decane-3-carboxylic acid] fall in the same range of IC50: 50 to 300 nM for the first, 50 to 300 nM for the second.

CNS(=O)(=O)c1cccc(-c2cc(Cl)ccc2[C@@H](Oc2cc(N3CCC4(CC3)CN[C@H](C(=O)O)C4)nc(N)n2)C(F)(F)F)c1 [Example 34ck, (S)-8-(2-amino-6-((R)-1-(5-chloro-3′-(N-methylsulfamoyl)-[1,1′-biphenyl]-2-yl)-2,2,2-trifluoroethoxy)pyrimidin-4-yl)-2,8-diazaspiro[4.5]decane-3-carboxylic acid] and CN(C)C(=O)c1cccc(-c2cc(Cl)ccc2[C@@H](Oc2cc(N3CCC4(CC3)CN[C@H](C(=O)O)C4)nc(N)n2)C(F)(F)F)c1 [Example 34cn, (S)-8-(2-amino-6-((R)-1-(5-chloro-3′-(dimethylcarbamoyl)-[1,1′-biphenyl]-2-yl)-2,2,2-trifluoroethoxy)pyrimidin-4-yl)-2,8-diazaspiro[4.5]decane-3-carboxylic acid] fall in the same range of IC50: 50 to 300 nM for the first, 50 to 300 nM for the second.

CCN(CC)C(=O)c1cccc(-c2cc(Cl)ccc2[C@@H](Oc2cc(N3CCC4(CC3)CN[C@H](C(=O)O)C4)nc(N)n2)C(F)(F)F)c1 [Example 34co, (S)-8-(2-amino-6-((R)-1-(5-chloro-3′-(diethylcarbamoyl)-[1,1′-biphenyl]-2-yl)-2,2,2-trifluoroethoxy)pyrimidin-4-yl)-2,8-diazaspiro[4.5]decane-3-carboxylic acid] and Nc1nc(O[C@H](c2ccc(Cl)cc2-c2cccc(C(=O)N3CCN(C4CC4)CC3)c2)C(F)(F)F)cc(N2CCC3(CC2)CN[C@H](C(=O)O)C3)n1 [Example 34cr, (S)-8-(2-amino-6-((R)-1-(5-chloro-3′-(4-cyclopropylpiperazine-1-carbonyl)-[1,1′-biphenyl]-2-yl)-2,2,2-trifluoroethoxy)pyrimidin-4-yl)-2,8-diazaspiro[4.5]decane-3-carboxylic acid] fall in the same range of IC50: 50 to 300 nM for the first, 50 to 300 nM for the second.

Compared with Nc1nc(O[C@H](c2ccc(Cl)cc2-c2ccccn2)C(F)(F)F)cc(N2CCC3(CC2)CN[C@H](C(=O)O)C3)n1 [Example 34cs, (S)-8-(2-amino-6-((R)-1-(4-chloro-2-(pyridin-2-yl)phenyl)-2,2,2-trifluoroethoxy)pyrimidin-4-yl)-2,8-diazaspiro[4.5]decane-3-carboxylic acid], Nc1nc(O[C@H](c2ccc(Cl)cc2-c2ncccn2)C(F)(F)F)cc(N2CCC3(CC2)CN[C@H](C(=O)O)C3)n1 [Example 34ct, (S)-8-(2-amino-6-((R)-1-(4-chloro-2-(pyrimidin-2-yl)phenyl)-2,2,2-trifluoroethoxy)pyrimidin-4-yl)-2,8-diazaspiro[4.5]decane-3-carboxylic acid] is lower in IC50: 50 to 300 nM for the first, less than 50 nM for the second. The second is the more potent here.
